Measurements: ChEMBL document CHEMBL4706731, “Semisynthetic Derivatives of the Verticillin Class of Natural Products through Acylation of the C11 Hydroxy Group” (ACS Med Chem Lett, 2021)

What was measured:
Type in all cases: functional, cell-based
MDA-MB-231 = assay: Cytotoxicity against human MDA-MB-231 cells assessed as inhibition of cell proliferation measured after 72 hrs by CellTiter 96 AQueous One Solution Cell Proliferation assay; details: MDA-MB-231, 72 h
MDA-MB-435 = assay: Cytotoxicity against human MDA-MB-435 cells assessed as inhibition of cell proliferation measured after 72 hrs by CellTiter 96 AQueous One Solution Cell Proliferation assay; details: MDA-MB-435, 72 h
OVCAR-3 = assay: Cytotoxicity against human OVCAR-3 cells assessed as inhibition of cell proliferation measured after 72 hrs by CellTiter 96 AQueous One Solution Cell Proliferation assay; details: OVCAR-3, 72 h

Structure (SMILES)	IC50 (MDA-MB-231) [µM]	IC50 (MDA-MB-435) [µM]	IC50 (OVCAR-3) [µM]
CN1C(=O)[C@]23SS[C@@]1(C)C(=O)N2[C@H]1Nc2ccccc2[C@@]1([C@@]12c4ccccc4N[C@@H]1N1C(=O)[C@]4(C)SS[C@]1(C(=O)N4C)[C@H]2O)[C@@H]3O	0.023	0.018	0.036
CC[C@@]12SS[C@]3(C(=O)N1C)[C@@H](O)[C@]1([C@@]45c6ccccc6N[C@@H]4N4C(=O)[C@]6(CC)SS[C@]4(C(=O)N6C)[C@H]5O)c4ccccc4N[C@@H]1N3C2=O	0.031	0.044	0.229
CC[C@@]12SS[C@]3(C(=O)N1C)[C@@H](O)[C@]1([C@@]45c6ccccc6N[C@@H]4N4C(=O)[C@]6(CC)SS[C@]4(C(=O)N6C)[C@H]5OS(=O)(=O)c4ccc(F)cc4)c4ccccc4N[C@@H]1N3C2=O	0.049	0.031	0.079
CN1C(=O)[C@]23SS[C@@]1(C)C(=O)N2[C@H]1Nc2ccccc2[C@@]1([C@@]12c4ccccc4N[C@@H]1N1C(=O)[C@]4(C)SS[C@]1(C(=O)N4C)[C@H]2OC(=O)CCC(=O)O)[C@@H]3O	0.012	0.009	0.033
CC[C@@]12SS[C@]3(C(=O)N1C)[C@@H](O)[C@]1([C@@]45c6ccccc6N[C@@H]4N4C(=O)[C@]6(CC)SS[C@]4(C(=O)N6C)[C@H]5OC(=O)C4CC4)c4ccccc4N[C@@H]1N3C2=O	0.012	0.024	0.105
CC[C@@]12SS[C@]3(C(=O)N1C)[C@@H](O)[C@]1([C@@]45c6ccccc6N[C@@H]4N4C(=O)[C@]6(CC)SS[C@]4(C(=O)N6C)[C@H]5OC(=O)C(C)(C)C)c4ccccc4N[C@@H]1N3C2=O	0.02	0.021	0.072
CCCC(=O)O[C@H]1[C@]2([C@@]34c5ccccc5N[C@@H]3N3C(=O)[C@]5(CC)SS[C@]3(C(=O)N5C)[C@H]4O)c3ccccc3N[C@@H]2N2C(=O)[C@]3(CC)SS[C@]12C(=O)N3C	0.017	0.019	0.025
CC[C@@]12SS[C@]3(C(=O)N1C)[C@@H](O)[C@]1([C@@]45c6ccccc6N[C@@H]4N4C(=O)[C@]6(CC)SS[C@]4(C(=O)N6C)[C@H]5OC(=O)CCC(=O)O)c4ccccc4N[C@@H]1N3C2=O	0.013	0.021	0.133
CC[C@@]12SS[C@]3(C(=O)N1C)[C@@H](O)[C@]1([C@@]45c6ccccc6N[C@@H]4N4C(=O)[C@]6(CC)SS[C@]4(C(=O)N6C)[C@H]5OC(=O)N(C)C)c4ccccc4N[C@@H]1N3C2=O	0.012	0.009	0.019
CC[C@@]12SS[C@]3(C(=O)N1C)[C@@H](O)[C@]1([C@@]45c6ccccc6N[C@@H]4N4C(=O)[C@]6(CC)SS[C@]4(C(=O)N6C)[C@H]5OC(C)=O)c4ccccc4N[C@@H]1N3C2=O	0.021	0.041	0.096
CCOC(=O)O[C@H]1[C@]2([C@@]34c5ccccc5N[C@@H]3N3C(=O)[C@]5(CC)SS[C@]3(C(=O)N5C)[C@H]4O)c3ccccc3N[C@@H]2N2C(=O)[C@]3(CC)SS[C@]12C(=O)N3C	0.007	0.011	0.137
CC[C@@]12SS[C@]3(C(=O)N1C)[C@@H](O)[C@]1([C@@]45c6ccccc6N[C@@H]4N4C(=O)[C@]6(CC)SS[C@]4(C(=O)N6C)[C@H]5OC(=O)NC)c4ccccc4N[C@@H]1N3C2=O	0.021	0.022	0.068
CC(=O)O[C@H]1C(=O)[C@@]2(C)[C@H]([C@H](OC(=O)c3ccccc3)[C@]3(O)C[C@H](OC(=O)[C@H](O)[C@@H](NC(=O)c4ccccc4)c4ccccc4)C(C)=C1C3(C)C)[C@]1(OC(C)=O)CO[C@@H]1C[C@@H]2O [PACLITAXEL]	0.0006	0.0003	0.0018
